Consider one compound from patent publication US20260041098A1, “POLYMERIC BATCH TO PREPARE AN ANTIMICROBIAL MATERIAL AND AIR FILTER” (IMPORTADORA Y EXPORTADORA JCN LIMITADA, priority 2021, published 2026).

Each structure is given as a SMILES string.

Holding throughout (assay type): cell-based
Assay [1] concerns E. coli ATCC 25922. Kind of assay: Copper oxychloride agar diffusion test. Conditions: 4,250-125,000 ppm tested, 37° C., 24 hours. The protocol: (§1) An agar diffusion test was conducted for E. coli ATCC 25922 and S. aureus ATCC 6538 cultures. Copper oxychloride was added at different concentrations (4,250 ppm, 8,500 ppm, 17,000 ppm, 32,000 ppm, 60,000 ppm, 125,000 ppm).
A general note: A growth-free zone around the sample is the usual read-out of agar diffusion tests.

The subject of assay [2] is S. aureus ATCC 6538. In words: Copper oxychloride agar diffusion test. Conditions: 4,250-125,000 ppm tested, 37° C., 24 hours. On the procedure: as §1
The subject of assay [3] is E. coli ATCC 25922. Kind of assay: Copper oxychloride dilution test. The protocol:
(§2) Additionally, a dilution test was performed using a 250,000 ppm ([…]) stock solution of copper oxychloride. A gradient was prepared using aliquots from 2,500 ppm to 100,000 ppm. A 3×10^5 CFU/mL bacterial culture of S. aureus ATCC 6538 and a 1.25×10^6 CFU/mL culture of E. coli ATCC 25922 were added to each solution.

The subject of assay [4] is S. aureus ATCC 6538. Kind of assay: Copper oxychloride dilution test. Conditions: 5,000 ppm. On the procedure:
as §2

Setting [5] is: repeated test, 5,000 ppm (bacterium not named).

Consider `[Cl-].[Cu+2].[Cu+2].[OH-].[OH-].[OH-]` [copper oxychloride], for which the “concentration at which zones of growth inhibition were observed” value in the assay on E. coli ATCC 25922 [1] and in the assay with S. aureus ATCC 6538 [2] was 17,000 ppm throughout. Besides, the “% Efficiency” value in the assay on E. coli ATCC 25922 [3] (2,500 ppm) came to 96.0%; with S. aureus ATCC 6538 [4] it was 99.9%. In addition, the results for the bacterial growth entry in the assay on E. coli ATCC 25922 [3] (2,500 ppm), in the assay on E. coli ATCC 25922 [3] (setting [5]) and in the assay on S. aureus ATCC 6538 [4] were “still grew”, “no bacterial growth was observed” and “no growth”, respectively. Also, the “Final Count” value is given as 5 × 10^4 CFU/mL in the assay on E. coli ATCC 25922 [3] (2,500 ppm, initial count 1.25 × 10^6 CFU/mL) and 2 × 10^2 CFU/mL in the assay on S. aureus ATCC 6538 [4] (initial count 3 × 10^5 CFU/mL). Further, the bacteria eliminated in the assay on E. coli ATCC 25922 [3] (setting [5]) worked out at 99.9%.
